# From patent US6906205B2, “Spiro and dispiro 1,2,4-trioxolane antimalarials” (Medicines for Malaria Venture MMV, priority 2002, dated 2005)
# System: P. falciparum K1 strain (Thailand resistant to chloroquine)
# Assay: semiautomated microdilution assay, [3H]-hypoxanthine incorporation, K1 strain
# Format: cell-based, Plasmodium falciparum
# Details: K1 strain, 72 h incubation
# How it was run: (§1)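 Intraerythrocytic stages from unsynchronised stock cultures are exposed to test compounds in a semiautomated microdilution format, and fifty percent inhibitory concentrations are then fitted by logit regression.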
row,SMILES,IC50 (ng/ml) K1 [ng/mL]
1,O=C(OCCC1CCC2(CC1)OOC1(O2)C2CC3CC(C2)CC1C3)c1ccc([N+](=O)[O-])cc1 (stereo not shown) [OZ88],5.7
2,O=C(NC[C@H]1CC[C@]2(CC1)OOC1(O2)C2CC3CC(C2)CC1C3)c1cc[n+]([O-])cc1 (stereo partly shown) [OZ264],1.2
3,O=C(N1CCCC1)N1CCC2(CC1)OOC1(O2)C2CC3CC(C2)CC1C3 (stereo not shown) [OZ203],3.9
4,O=C1c2ccccc2S(=O)(=O)N1C[C@H]1CC[C@]2(CC1)OOC1(O2)C2CC3CC(C2)CC1C3 (stereo partly shown) [OZ212],2.7
5,O=C(NC[C@H]1CC[C@]2(CC1)OOC1(O2)C2CC3CC(C2)CC1C3)c1ccccc1C(=O)NC[C@H]1CC[C@]2(CC1)OOC1(O2)C2CC3CC(C2)CC1C3 (stereo partly shown) [OZ230],3.9
6,O=C1OC2(CCC3(CC2)OOC2(O3)C3CC4CC(C3)CC2C4)c2ccccc21 (stereo not shown) [OZ149],8.0

# System: ANKA strain of P. berghei
# Assay: single dose STI in vivo screen in infected mice
# Parameters: species or system Plasmodium berghei
# Details: percent reduction in parasitemia day 3 post-infection; single 10 mg/kg po in 3% ethanol and 7% Tween 80; mice
# How it was run: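 Groups of 3-5 Moro SPF or NMRI mice infected with the ANKA strain of P. berghei received a single dose of trioxolane on day one post-infection. The compound was given in 3% ethanol and 7% Tween 80 or in SSV (0.5% w/v CMC, 0.5% v/v benzyl alcohol, 0.4% v/v Tween 80, 0.9% w/v sodium chloride in water). Antimalarial activity was scored as percent reduction in parasitemia on day three and as survival time versus untreated controls. Survival to day 30 counted as cure.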
row,SMILES,Activity (%) po
1,O=C(OCCC1CCC2(CC1)OOC1(O2)C2CC3CC(C2)CC1C3)c1ccc([N+](=O)[O-])cc1 (stereo not shown) [OZ88],62%
2,O=C(NC[C@H]1CC[C@]2(CC1)OOC1(O2)C2CC3CC(C2)CC1C3)c1cc[n+]([O-])cc1 (stereo partly shown) [OZ264],99.61%
3,O=C(N1CCCC1)N1CCC2(CC1)OOC1(O2)C2CC3CC(C2)CC1C3 (stereo not shown) [OZ203],87%
4,O=C1c2ccccc2S(=O)(=O)N1C[C@H]1CC[C@]2(CC1)OOC1(O2)C2CC3CC(C2)CC1C3 (stereo partly shown) [OZ212],66%
5,O=C(NC[C@H]1CC[C@]2(CC1)OOC1(O2)C2CC3CC(C2)CC1C3)c1ccccc1C(=O)NC[C@H]1CC[C@]2(CC1)OOC1(O2)C2CC3CC(C2)CC1C3 (stereo partly shown) [OZ230],0/0/0%
6,O=C1OC2(CCC3(CC2)OOC2(O3)C3CC4CC(C3)CC2C4)c2ccccc21 (stereo not shown) [OZ149],64%

# Same assay, conditions: percent reduction in parasitemia day 3 post-infection; single 10 mg/kg sc in 3% ethanol and 7% Tween 80; mice
row,SMILES,Activity (%) sc
1,O=C(OCCC1CCC2(CC1)OOC1(O2)C2CC3CC(C2)CC1C3)c1ccc([N+](=O)[O-])cc1 (stereo not shown) [OZ88],99.1%
2,O=C(NC[C@H]1CC[C@]2(CC1)OOC1(O2)C2CC3CC(C2)CC1C3)c1cc[n+]([O-])cc1 (stereo partly shown) [OZ264],99.97%
3,O=C(N1CCCC1)N1CCC2(CC1)OOC1(O2)C2CC3CC(C2)CC1C3 (stereo not shown) [OZ203],99.72%
4,O=C1c2ccccc2S(=O)(=O)N1C[C@H]1CC[C@]2(CC1)OOC1(O2)C2CC3CC(C2)CC1C3 (stereo partly shown) [OZ212],59%
5,O=C(NC[C@H]1CC[C@]2(CC1)OOC1(O2)C2CC3CC(C2)CC1C3)c1ccccc1C(=O)NC[C@H]1CC[C@]2(CC1)OOC1(O2)C2CC3CC(C2)CC1C3 (stereo partly shown) [OZ230],0/0/0%
6,O=C1OC2(CCC3(CC2)OOC2(O3)C3CC4CC(C3)CC2C4)c2ccccc21 (stereo not shown) [OZ149],87%

# Same assay, conditions: percent reduction in parasitemia day 3 post-infection; single po dose in standard suspending vehicle (SSV); mice
row,SMILES,Activity (%) SSVpo
1,O=C(NC[C@H]1CC[C@]2(CC1)OOC1(O2)C2CC3CC(C2)CC1C3)c1cc[n+]([O-])cc1 (stereo partly shown) [OZ264],99.92%
2,O=C(N1CCCC1)N1CCC2(CC1)OOC1(O2)C2CC3CC(C2)CC1C3 (stereo not shown) [OZ203],99.42%
3,O=C1c2ccccc2S(=O)(=O)N1C[C@H]1CC[C@]2(CC1)OOC1(O2)C2CC3CC(C2)CC1C3 (stereo partly shown) [OZ212],25%
4,O=C(NC[C@H]1CC[C@]2(CC1)OOC1(O2)C2CC3CC(C2)CC1C3)c1ccccc1C(=O)NC[C@H]1CC[C@]2(CC1)OOC1(O2)C2CC3CC(C2)CC1C3 (stereo partly shown) [OZ230],0/0/0%
5,O=C1OC2(CCC3(CC2)OOC2(O3)C3CC4CC(C3)CC2C4)c2ccccc21 (stereo not shown) [OZ149],3%

# Same assay, conditions: single 10 mg/kg po in 3% ethanol and 7% Tween 80; untreated control 5.6 ± 0.3
row,SMILES,Survival (days) po [days]
1,O=C(OCCC1CCC2(CC1)OOC1(O2)C2CC3CC(C2)CC1C3)c1ccc([N+](=O)[O-])cc1 (stereo not shown) [OZ88],6.0
2,O=C(NC[C@H]1CC[C@]2(CC1)OOC1(O2)C2CC3CC(C2)CC1C3)c1cc[n+]([O-])cc1 (stereo partly shown) [OZ264],11.0
3,O=C(N1CCCC1)N1CCC2(CC1)OOC1(O2)C2CC3CC(C2)CC1C3 (stereo not shown) [OZ203],7.3
4,O=C1c2ccccc2S(=O)(=O)N1C[C@H]1CC[C@]2(CC1)OOC1(O2)C2CC3CC(C2)CC1C3 (stereo partly shown) [OZ212],6.7
5,O=C(NC[C@H]1CC[C@]2(CC1)OOC1(O2)C2CC3CC(C2)CC1C3)c1ccccc1C(=O)NC[C@H]1CC[C@]2(CC1)OOC1(O2)C2CC3CC(C2)CC1C3 (stereo partly shown) [OZ230],5.3
6,O=C1OC2(CCC3(CC2)OOC2(O3)C3CC4CC(C3)CC2C4)c2ccccc21 (stereo not shown) [OZ149],7.7

# Same assay, conditions: single 10 mg/kg sc in 3% ethanol and 7% Tween 80; untreated control 5.6 ± 0.3
row,SMILES,Survival (days) sc [days]
1,O=C(OCCC1CCC2(CC1)OOC1(O2)C2CC3CC(C2)CC1C3)c1ccc([N+](=O)[O-])cc1 (stereo not shown) [OZ88],11.7
2,O=C(NC[C@H]1CC[C@]2(CC1)OOC1(O2)C2CC3CC(C2)CC1C3)c1cc[n+]([O-])cc1 (stereo partly shown) [OZ264],13.7
3,O=C(N1CCCC1)N1CCC2(CC1)OOC1(O2)C2CC3CC(C2)CC1C3 (stereo not shown) [OZ203],9.7
4,O=C1c2ccccc2S(=O)(=O)N1C[C@H]1CC[C@]2(CC1)OOC1(O2)C2CC3CC(C2)CC1C3 (stereo partly shown) [OZ212],8.0
5,O=C(NC[C@H]1CC[C@]2(CC1)OOC1(O2)C2CC3CC(C2)CC1C3)c1ccccc1C(=O)NC[C@H]1CC[C@]2(CC1)OOC1(O2)C2CC3CC(C2)CC1C3 (stereo partly shown) [OZ230],5.7
6,O=C1OC2(CCC3(CC2)OOC2(O3)C3CC4CC(C3)CC2C4)c2ccccc21 (stereo not shown) [OZ149],14.3

# Same assay, conditions: single po dose in SSV; untreated control 5.6 ± 0.3
row,SMILES,Survival (days) SSVpo [days]
1,O=C(NC[C@H]1CC[C@]2(CC1)OOC1(O2)C2CC3CC(C2)CC1C3)c1cc[n+]([O-])cc1 (stereo partly shown) [OZ264],10.3
2,O=C(N1CCCC1)N1CCC2(CC1)OOC1(O2)C2CC3CC(C2)CC1C3 (stereo not shown) [OZ203],8.7
3,O=C1c2ccccc2S(=O)(=O)N1C[C@H]1CC[C@]2(CC1)OOC1(O2)C2CC3CC(C2)CC1C3 (stereo partly shown) [OZ212],6.7
4,O=C(NC[C@H]1CC[C@]2(CC1)OOC1(O2)C2CC3CC(C2)CC1C3)c1ccccc1C(=O)NC[C@H]1CC[C@]2(CC1)OOC1(O2)C2CC3CC(C2)CC1C3 (stereo partly shown) [OZ230],5.7
5,O=C1OC2(CCC3(CC2)OOC2(O3)C3CC4CC(C3)CC2C4)c2ccccc21 (stereo not shown) [OZ149],6.0

# System: P. falciparum NF54 strain (sensitive to standard antimalarials)
# Assay: semiautomated microdilution assay, [3H]-hypoxanthine incorporation, NF54 strain
# Format: cell-based, Plasmodium falciparum
# Details: NF54 strain, 72 h incubation
# How it was run: as §1
row,SMILES,IC50 (ng/ml) NF54 [ng/mL]
1,O=C(OCCC1CCC2(CC1)OOC1(O2)C2CC3CC(C2)CC1C3)c1ccc([N+](=O)[O-])cc1 (stereo not shown) [OZ88],4.2
2,O=C(NC[C@H]1CC[C@]2(CC1)OOC1(O2)C2CC3CC(C2)CC1C3)c1cc[n+]([O-])cc1 (stereo partly shown) [OZ264],1.5
3,O=C(N1CCCC1)N1CCC2(CC1)OOC1(O2)C2CC3CC(C2)CC1C3 (stereo not shown) [OZ203],6.7
4,O=C1c2ccccc2S(=O)(=O)N1C[C@H]1CC[C@]2(CC1)OOC1(O2)C2CC3CC(C2)CC1C3 (stereo partly shown) [OZ212],2.9
5,O=C(NC[C@H]1CC[C@]2(CC1)OOC1(O2)C2CC3CC(C2)CC1C3)c1ccccc1C(=O)NC[C@H]1CC[C@]2(CC1)OOC1(O2)C2CC3CC(C2)CC1C3 (stereo partly shown) [OZ230],3.6
6,O=C1OC2(CCC3(CC2)OOC2(O3)C3CC4CC(C3)CC2C4)c2ccccc21 (stereo not shown) [OZ149],8.8
